Source: ChEMBL document CHEMBL1201862, “PubChem BioAssay data set” (2004)
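1) Cells in 96-well plates. 2) Compound, 48 h, 5 concentrations. 3) Linear interpolation between surrounding doses. 4) Unreached endpoint = highest concentration. The concentration for 50% growth inhibition is given as GI50.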 Active and inactive are the calls of the source. No stated cut-off is given here; in the data, active = GI50 up to about 1.1 µM and inactive = higher.

Key:
Assay in all cases: NCI tumour cell line growth inhibition, 48 h
786-0 = system: 786-0
NCI-H226 = system: NCI-H226
HT-29 = system: HT-29
DU-145 = system: DU-145
SK-MEL-28 = system: SK-MEL-28
T47D = system: T47D
SN12C = system: SN12C
EKVX = system: EKVX
UACC-62 = system: UACC-62
MDA-MB-231 = system: MDA-MB-231
OVCAR-3 = system: OVCAR-3
HOP-92 = system: HOP-92
NCI/ADR-RES = system: NCI/ADR-RES
MCF7 = system: MCF7
SNB-19 = system: SNB-19
Malme-3M = system: Malme-3M
LOX IMVI = system: LOX IMVI
A498 = system: A498
SF-268 = system: SF-268
MDA-MB-435 = system: MDA-MB-435
SR = system: SR
BT-549 = system: BT-549
IGROV-1 = system: IGROV-1
HCT-116 = system: HCT-116
M14 = system: M14
MDA-N = system: MDA-N
HCT-15 = system: HCT-15
RXF 393 = system: RXF 393
Hs-578T = system: Hs-578T
A549 = system: A549
SK-MEL-2 = system: SK-MEL-2
KM12 = system: KM12
SF-295 = system: SF-295
SK-OV-3 = system: SK-OV-3
U-251 = system: U-251
OVCAR-8 = system: OVCAR-8
PC-3 = system: PC-3
NCI-H23 = system: NCI-H23
HCC 2998 = system: HCC 2998
SNB-75 = system: SNB-75
UO-31 = system: UO-31
SK-MEL-5 = system: SK-MEL-5
RPMI-8226 = system: RPMI-8226
SF-539 = system: SF-539
UACC-257 = system: UACC-257
K562 = system: K562
NCI-H460 = system: NCI-H460
SW-620 = system: SW-620
ACHN = system: ACHN
OVCAR-5 = system: OVCAR-5
COLO 205 = system: COLO 205
CAKI-1 = system: CAKI-1
HL-60 = system: HL-60
OVCAR-4 = system: OVCAR-4
MOLT-4 = system: MOLT-4
NCI-H522 = system: NCI-H522

## CC(=O)OC(=C(C#N)C#N)c1nccnc1C(=O)O
786-0
  GI50: > 100 µM (inactive)
NCI-H226
  GI50: > 100 µM (inactive)
HT-29
  GI50: > 100 µM (inactive)
DU-145
  GI50: > 100 µM (inactive)
SK-MEL-28
  GI50: > 100 µM (inactive)
T47D
  GI50: > 100 µM (inactive)
SN12C
  GI50: > 100 µM (inactive)
EKVX
  GI50: > 100 µM (inactive)
UACC-62
  GI50: > 100 µM (inactive)
MDA-MB-231
  GI50: > 100 µM (inactive)
OVCAR-3
  GI50: > 100 µM (inactive)
HOP-92
  GI50: > 100 µM (inactive)
NCI/ADR-RES
  GI50: > 100 µM (inactive)
MCF7
  GI50: > 100 µM (inactive)
SNB-19
  GI50: > 100 µM (inactive)
Malme-3M
  GI50: > 100 µM (inactive)
LOX IMVI
  GI50: > 100 µM (inactive)
A498
  GI50: > 100 µM (inactive)
SF-268
  GI50: > 100 µM (inactive)
MDA-MB-435
  GI50: > 100 µM (inactive)
SR
  GI50: > 100 µM (inactive)
BT-549
  GI50: > 100 µM (inactive)
IGROV-1
  GI50: > 100 µM (inactive)
HCT-116
  GI50: > 100 µM (inactive)
M14
  GI50: > 100 µM (inactive)
MDA-N
  GI50: > 100 µM (inactive)
HCT-15
  GI50: > 100 µM
RXF 393
  GI50: > 100 µM (inactive)
Hs-578T
  GI50: > 100 µM (inactive)
A549
  GI50: > 100 µM (inactive)
SK-MEL-2
  GI50: > 100 µM (inactive)
KM12
  GI50: > 100 µM (inactive)
SF-295
  GI50: > 100 µM (inactive)
SK-OV-3
  GI50: > 100 µM (inactive)
U-251
  GI50: > 100 µM (inactive)
OVCAR-8
  GI50: > 100 µM (inactive)
PC-3
  GI50: > 100 µM (inactive)
NCI-H23
  GI50: > 100 µM (inactive)
HCC 2998
  GI50: > 100 µM (inactive)
SNB-75
  GI50: 95.7 µM (inactive)
UO-31
  GI50: > 100 µM (inactive)
SK-MEL-5
  GI50: > 100 µM (inactive)
RPMI-8226
  GI50: > 100 µM (inactive)
SF-539
  GI50: > 100 µM (inactive)
UACC-257
  GI50: > 100 µM (inactive)
K562
  GI50: > 100 µM (inactive)
NCI-H460
  GI50: > 100 µM (inactive)
SW-620
  GI50: > 100 µM (inactive)
ACHN
  GI50: > 100 µM (inactive)
OVCAR-5
  GI50: > 100 µM (inactive)
COLO 205
  GI50: > 100 µM (inactive)
CAKI-1
  GI50: > 100 µM (inactive)
HL-60
  GI50: > 100 µM (inactive)
OVCAR-4
  GI50: > 100 µM (inactive)
MOLT-4
  GI50: > 100 µM (inactive)
NCI-H522
  GI50: > 100 µM (inactive)
